Data reported in patent publication US11780830B2, “Triazolone derivatives or salts thereof and pharmaceutical compositions comprising the same” (YUHAN CORPORATION, priority 2018, dated 2023).

Key:
Type in all cases: biochemical
recombinant human VAP-1 = target: T1, recombinant human VAP-1 (Homo sapiens, UniProt Q16853); assay: Activity on recombinant human VAP-1, HRP-coupled Amplex Red hydrogen peroxide assay; details: substrate 1 mM benzylamine; compound incubated with enzyme at 37° C. for 30 minutes; pH 7.4; read-out: Inhibitory Activity (IC50, nM) human VAP-1
T1 construct: purchased R&D systems
T1 sequence (Q16853 1-763): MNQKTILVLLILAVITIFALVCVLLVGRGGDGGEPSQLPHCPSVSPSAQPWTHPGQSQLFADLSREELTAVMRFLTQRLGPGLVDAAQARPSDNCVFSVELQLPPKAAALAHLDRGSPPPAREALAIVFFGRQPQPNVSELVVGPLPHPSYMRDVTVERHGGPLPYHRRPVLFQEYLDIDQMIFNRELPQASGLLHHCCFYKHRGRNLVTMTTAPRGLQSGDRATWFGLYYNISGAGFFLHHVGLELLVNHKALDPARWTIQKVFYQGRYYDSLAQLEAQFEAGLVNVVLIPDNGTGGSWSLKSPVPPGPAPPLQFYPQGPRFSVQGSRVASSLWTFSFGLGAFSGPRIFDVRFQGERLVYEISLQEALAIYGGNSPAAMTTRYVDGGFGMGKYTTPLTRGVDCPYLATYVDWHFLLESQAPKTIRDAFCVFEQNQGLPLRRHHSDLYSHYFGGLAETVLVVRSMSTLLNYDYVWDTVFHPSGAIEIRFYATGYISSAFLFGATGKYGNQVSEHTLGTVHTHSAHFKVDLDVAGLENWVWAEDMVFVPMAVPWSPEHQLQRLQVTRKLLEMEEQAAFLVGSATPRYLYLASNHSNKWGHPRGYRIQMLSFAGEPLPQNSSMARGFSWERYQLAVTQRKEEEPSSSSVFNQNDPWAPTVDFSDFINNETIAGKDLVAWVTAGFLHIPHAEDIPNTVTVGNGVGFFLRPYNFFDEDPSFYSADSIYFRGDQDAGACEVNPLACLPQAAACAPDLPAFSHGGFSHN
In short: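 H2O2 generation from 1 mM benzylamine was coupled via 1 U/mL HRP to 200 uM Amplex Red; inhibitors, serially diluted 1:3 over 8 points with under 1% final DMSO, had been preincubated 30 min at 37 °C. IC50 from percentage drop in rate.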

[1] = target: T2, recombinant human MAO-A (monoamine oxidase-A) (Homo sapiens, UniProt P21397); assay: Activity on recombinant human MAO-A, method similar to the VAP-1 assay; details: substrate 0.5 mM tyramine; read-out: Inhibitory Activity (IC50, nM) MAO-A
T2 construct: purchased Sigma-Aldrich
T2 sequence (P21397 1-527): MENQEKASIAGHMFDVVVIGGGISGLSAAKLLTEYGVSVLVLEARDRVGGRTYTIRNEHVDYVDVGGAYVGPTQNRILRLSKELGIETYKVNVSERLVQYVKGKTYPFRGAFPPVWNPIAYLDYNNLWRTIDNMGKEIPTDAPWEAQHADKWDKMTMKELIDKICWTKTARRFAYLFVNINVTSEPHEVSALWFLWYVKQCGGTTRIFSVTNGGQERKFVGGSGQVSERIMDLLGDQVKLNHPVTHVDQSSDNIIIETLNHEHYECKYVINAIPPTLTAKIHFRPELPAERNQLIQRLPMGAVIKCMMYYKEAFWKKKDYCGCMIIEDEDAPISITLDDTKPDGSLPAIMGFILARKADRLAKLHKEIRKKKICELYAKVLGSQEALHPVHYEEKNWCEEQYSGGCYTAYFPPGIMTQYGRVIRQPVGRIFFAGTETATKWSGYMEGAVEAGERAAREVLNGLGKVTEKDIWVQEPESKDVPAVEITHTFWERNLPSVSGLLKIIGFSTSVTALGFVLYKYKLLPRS
In short: (§1)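 First, serially diluted compounds were incubated with recombinant enzyme in 50 mM sodium phosphate, pH 7.4, for 30 min at 37° C. Next, Amplex Red (200 uM), HRP (1 U/mL) and tyramine (0.5 mM, MAO-A) or benzylamine (1 mM, MAO-B) were added. Then fluorescence was monitored over 1-2 h and IC50 fitted.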

[2] = target: T3, recombinant human DAO (diamine oxidase) (Homo sapiens, UniProt P19801); assay: Activity on recombinant human DAO, method similar to the VAP-1 assay; details: substrate 1 mM putrescine; read-out: Inhibitory Activity (IC50, nM) DAO
T3 construct: purchased R&D systems
T3 sequence (P19801 20-751): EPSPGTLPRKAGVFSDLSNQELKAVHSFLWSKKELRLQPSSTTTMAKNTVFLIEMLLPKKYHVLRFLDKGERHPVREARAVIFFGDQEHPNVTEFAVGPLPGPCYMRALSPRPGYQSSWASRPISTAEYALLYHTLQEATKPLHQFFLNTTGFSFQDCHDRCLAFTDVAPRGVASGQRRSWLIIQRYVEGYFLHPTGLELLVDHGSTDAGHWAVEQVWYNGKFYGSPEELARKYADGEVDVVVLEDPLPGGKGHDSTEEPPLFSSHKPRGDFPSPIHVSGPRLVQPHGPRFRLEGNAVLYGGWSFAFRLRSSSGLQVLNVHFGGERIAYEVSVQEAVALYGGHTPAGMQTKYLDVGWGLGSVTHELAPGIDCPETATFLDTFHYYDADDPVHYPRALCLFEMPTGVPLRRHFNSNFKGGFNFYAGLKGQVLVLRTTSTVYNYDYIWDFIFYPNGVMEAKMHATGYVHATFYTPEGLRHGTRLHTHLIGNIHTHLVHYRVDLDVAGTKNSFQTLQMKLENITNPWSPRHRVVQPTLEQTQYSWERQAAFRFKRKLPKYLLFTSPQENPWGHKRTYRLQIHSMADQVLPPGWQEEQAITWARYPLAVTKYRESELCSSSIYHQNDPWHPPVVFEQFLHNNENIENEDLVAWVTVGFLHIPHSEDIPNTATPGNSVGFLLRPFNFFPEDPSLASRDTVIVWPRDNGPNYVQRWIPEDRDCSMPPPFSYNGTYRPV
In short: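 Inhibition of recombinant human diamine oxidase (DAO, R&D systems) was assessed by the same approach as the VAP-1 assay, using 1 mM putrescine as substrate. Hydrogen peroxide formed was detected through an HRP-coupled Amplex Red reaction yielding fluorescent resorufin, read at 544 nm excitation and 590 nm emission. IC50 values came from four-parameter logistic fitting in GraphPad Prism.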

[3] = target: T4, recombinant human MAO-B (monoamine oxidase-B) (Homo sapiens, UniProt P27338); assay: Activity on recombinant human MAO-B, method similar to the VAP-1 assay; details: substrate 1 mM benzylamine; read-out: Inhibitory Activity (IC50, nM) MAO-B
T4 construct: purchased Sigma-Aldrich
T4 sequence (P27338 1-520): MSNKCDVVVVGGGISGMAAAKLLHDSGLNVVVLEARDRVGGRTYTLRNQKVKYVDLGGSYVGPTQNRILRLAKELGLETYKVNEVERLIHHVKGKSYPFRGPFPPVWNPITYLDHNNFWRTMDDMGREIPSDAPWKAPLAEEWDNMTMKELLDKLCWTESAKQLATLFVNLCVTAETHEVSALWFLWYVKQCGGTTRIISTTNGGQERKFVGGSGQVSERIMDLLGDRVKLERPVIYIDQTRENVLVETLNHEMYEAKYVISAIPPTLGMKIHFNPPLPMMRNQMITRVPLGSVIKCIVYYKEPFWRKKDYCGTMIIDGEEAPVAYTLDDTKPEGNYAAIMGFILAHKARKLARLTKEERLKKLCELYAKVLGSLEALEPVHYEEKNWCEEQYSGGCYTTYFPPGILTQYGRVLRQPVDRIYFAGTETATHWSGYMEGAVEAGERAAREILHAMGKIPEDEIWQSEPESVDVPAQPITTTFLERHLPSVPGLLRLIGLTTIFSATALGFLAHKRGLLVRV
In short: as §1

IC50 (recombinant human VAP-1) [nM] | IC50 [1] [nM] | IC50 [2] [nM] | IC50 [3] [nM] | SMILES
3.3 | > 100000 | 12000 | 930 | NC/C(=C\F)Cn1ncn(Cc2ccc(-c3ccc(CO)cc3)s2)c1=O [Example 169, 2-[(2E)-2-(aminomethyl)-3-fluoroprop-2-en-1-yl]-4-({5-[4-(hydroxymethyl)phenyl]thiophen-2-yl}methyl)-2,4-dihydro-3H-1,2,4-triazol-3-one]
2.4 | > 100000 | 16000 | 740 | NC/C(=C\F)Cn1ncn(Cc2ccc(-c3ccc(CCO)cc3)s2)c1=O [Example 171, 2-[(2E)-2-(aminomethyl)-3-fluoroprop-2-en-1-yl]-4-({5-[4-(2-hydroxyethyl)phenyl]thiophen-2-yl}methyl)-2,4-dihydro-3H-1,2,4-triazol-3-one]
7.7 | > 100000 | 1000 | 570 | NC/C(=C\F)Cn1ncn(Cc2ccc(-c3ccc(OCC4CC4)nc3)s2)c1=O [Example 174, 2-[(2E)-2-(aminomethyl)-3-fluoroprop-2-en-1-yl]-4-({5-[6-(cyclopropylmethoxy)pyridin-3-yl]thiophen-2-yl}methyl)-2,4-dihydro-3H-1,2,4-triazol-3-one]
3.6 | > 100000 | 670 | 4400 | NC/C(=C\F)Cn1ncn(Cc2ccc(-c3ccnnc3)s2)c1=O [Example 175, 2-[(2E)-2-(aminomethyl)-3-fluoroprop-2-en-1-yl]-4-{[5-(pyridazin-4-yl)thiophen-2-yl]methyl}-2,4-dihydro-3H-1,2,4-triazol-3-one]
1.2 | > 100000 | 89 | 8400 | CCOc1ncc(-c2ccc(Cn3cnn(C/C(=C/F)CN)c3=O)s2)cn1 [Example 179, 2-[(2E)-2-(aminomethyl)-3-fluoroprop-2-en-1-yl]-4-{[5-(2-ethoxypyrimidin-5-yl)thiophen-2-yl]methyl}-2,4-dihydro-3H-1,2,4-triazol-3-one]

Second part, the compound before the results:

SMILES | IC50 (recombinant human VAP-1) [nM] | IC50 [1] [nM] | IC50 [2] [nM] | IC50 [3] [nM]
NC/C(=C\F)Cn1ncn(Cc2ccc(Cc3ccc(OC(F)(F)F)cc3)s2)c1=O [Example 168, 2-[(2E)-2-(aminomethyl)-3-fluoroprop-2-en-1-yl]-4-({5-[4-(trifluoromethoxy)benzyl]thiophen-2-yl}methyl)-2,4-dihydro-3H-1,2,4-triazol-3-one] | 12 | > 100000 | 4500 | 340
NC/C(=C\F)Cn1ncn(Cc2ccc(-c3ccc(OC(F)F)cc3)s2)c1=O [Example 170, 2-[(2E)-2-(aminomethyl)-3-fluoroprop-2-en-1-yl]-4-({5-[4-(difluoromethoxy)phenyl]thiophen-2-yl}methyl)-2,4-dihydro-3H-1,2,4-triazol-3-one] | 3 | > 100000 | 3100 | 190
Cc1cc(-c2ccc(Cn3cnn(C/C(=C/F)CN)c3=O)s2)cnc1N1CCOCC1 [Example 172, 2-[(2E)-2-(aminomethyl)-3-fluoroprop-2-en-1-yl]-4-({5-[5-methyl-6-(morpholin-4-yl)pyridin-3-yl]thiophen-2-yl}methyl)-2,4-dihydro-3H-1,2,4-triazol-3-one] | 2.8 | > 100000 | 490 | 3900
CN(C)c1ncc(-c2ccc(Cn3cnn(C/C(=C/F)CN)c3=O)s2)cc1F [Example 173, 2-[(2E)-2-(aminomethyl)-3-fluoroprop-2-en-1-yl]-4-({5-[6-(dimethylamino)-5-fluoropyridin-3-yl]thiophen-2-yl}methyl)-2,4-dihydro-3H-1,2,4-triazol-3-one] | 2.1 | > 100000 | 1200 | 2000
CNC(=O)c1ccc(-c2ccc(Cn3cnn(C/C(=C/F)CN)c3=O)s2)cc1 [Example 176, 4-[5-({1-[(2E)-2-(aminomethyl)-3-fluoroprop-2-en-1-yl]-5-oxo-1,5-dihydro-4H-1,2,4-triazol-4-yl}methyl)thiophen-2-yl]-N-methylbenzamide] | 1.5 | > 100000 | 1100 | 1900
CS(=O)(=O)Nc1cccc(-c2ccc(Cn3cnn(C/C(=C/F)CN)c3=O)s2)c1 [Example 177, N-{3-[5-({1-[(2E)-2-(aminomethyl)-3-fluoroprop-2-en-1-yl]-5-oxo-1,5-dihydro-4H-1,2,4-triazol-4-yl}methyl)thiophen-2-yl]phenyl}methansulfonamide] | 1.5 | > 100000 | 570 | 300
COc1cc(-c2ccc(Cn3cnn(C/C(=C/F)CN)c3=O)s2)cnc1OC [Example 178, 2-[(2E)-2-(aminomethyl)-3-fluoroprop-2-en-1-yl]-4-{[5-(5,6-dimethoxypyridin-3-yl)thiophen-2-yl]methyl}-2,4-dihydro-3H-1,2,4-triazol-3-one] | 0.8 | > 100000 | 280 | 700
